Test results published in PMC10786692 (The Journal of Clinical Investigation, 2024).
Several values for one entry are separate records, joined by “and”; a condition that tells them apart may be missing. Identical values can stand only once. Like-named read-outs stand apart in the source and are kept apart here.

Tests used:
[1] = Plasma pharmacokinetics of ceralasertib (HPLC-MS/MS, NCA); format: in vivo, human; settings: for half-life: read-out: Mean terminal elimination half-life
Procedure: Intensive PK sampling in part A occurred after a single dose from predose up to 24 to 72 hours and again at day 15 and day 29 of continuous dosing. Participants fasted for 1 hour before and 2 hours after dosing for PK assessment. In part B, sampling coincided with day 15 PD assessments. Full details are given in Supplemental Methods. […]
Evaluated PK […]
maximum observed plasma concentration (Cmax), time to Cmax (tmax), and apparent terminal half-life (t1/2) calculated as ln/lambda-z where lambda-z (lz) is the apparent terminal phase rate- […]
constant estimated by linear regression of logarithmically-transformed concentration-versus-time data. A minimum of three data points were used in calculating lz as per AstraZeneca standard operating procedures. Data from multiple dosing were used to derive accumulation ratios based on Cmax (Race Cmax) and AUC(0-8) (Rac AUC0-8) defined as the ratio between Cmax or AUC(0-8) after multiple dose and Cmax and AUC(0-8) at day 1. All PK parameters for […]
WinNonLin v8.3 software or higher where the ‘linear up/log down trapezoidal rule’ for AUC was […]
applied. […]

phospho-(S345)Chk1 = assay: PBMC phospho-Chk1 immunofluorescence; format: in vivo, human; settings: after 2-week dosing
Procedure: PD sampling took place at baseline (within 7 days prior to dosing) and between days 15 and 22 of dosing (day 14 for intermittent dosing cohorts). PD samples included PBMCs and tumor biopsies. PBMCs were analyzed by immunofluorescence for γ^(S139)H2AX, p-^(S345)Chk1, and total Chk1, as described in Supplemental Methods. Paired tumor biopsies were formalin fixed and analyzed for nuclear p-^(S635)Rad50 and γH2AX by IHC.
PBMCs were isolated from blood using BD Vacutainer® CPT™ Cell preparation tubes with sodium citrate (BD Biosciences, Wokingham, UK) and fixed with 4% formalin containing 1% Triton™ X-100 (Sigma-Aldrich, St. Louis, MO). […] A Carl Zeiss LSM 700 confocal laser scanning fluorescence microscope (Zeiss, Jena, Germany) was used to visualize and capture images of the PBMCs. Fluorescent nuclear intensity for phospho-(S345) and total Chk1 in individual PBMC cells were quantified using the IN Cell Investigator Developer Toolbox v1.9 software (GE Healthcare Biosciences, Piscataway, NJ). For the phospho(S345)- and total Chk1 assays: the raw data values (fluorescent nuclear intensity for PBMCs), the percentage change for phospho(S345) biomarker was calculated for each subject by comparing the levels measured at each post-dose time point to pre-dose levels measured at baseline. […]
Peripheral blood was drawn into 8 mL EDTA tubes (Vacutainer, BD) and analyzed within 24 hours. […]

C[C@@H]1COCCN1c1cc(C2([S@](C)(=N)=O)CC2)nc(-c2cc[nH]c3nccc2-3)n1 [ceralasertib]
Plasma concentration, individual patients ([1]; 20 mg day 0, 24 h): 0.142 µg/mL and 0.138 µg/mL and 0.38 µg/mL
Plasma concentration, individual patients ([1]; 20 mg day 1, 24 h): 0.632 µg/mL and 0.586 µg/mL and 0.929 µg/mL
Plasma concentration, individual patients ([1]; 40 mg day 0, 0 h, in ng/mL): 0
Plasma concentration, individual patients ([1]; 40 mg day 0, 0.5 h): 0.76 µg/mL and 1.28 µg/mL and 0.301 µg/mL
Plasma concentration, individual patients ([1]; 40 mg day 0, 1 h): 1.15 µg/mL and 2.23 µg/mL and 1.66 µg/mL
Plasma concentration, individual patients ([1]; 40 mg day 0, 2 h): 1.66 µg/mL and 1.43 µg/mL
Plasma concentration, individual patients ([1]; 40 mg day 0, 4 h): 1.33 µg/mL and 1.17 µg/mL
Plasma concentration, individual patients ([1]; 40 mg day 0, 8 h): 0.894 µg/mL and 0.668 µg/mL
Plasma concentration, individual patients ([1]; 40 mg day 0, 24 h): 0.226 µg/mL and 0.224 µg/mL
Plasma concentration, individual patients ([1]; 40 mg day 1, 0.5 h): 1.85 µg/mL and 0.634 µg/mL and 1.99 µg/mL
Plasma concentration, individual patients ([1]; 40 mg day 1, 1 h): 1.44 µg/mL and 1.57 µg/mL
Plasma concentration, individual patients ([1]; 40 mg day 1, 2 h): 2.06 µg/mL and 1.61 µg/mL
Plasma concentration, individual patients ([1]; 40 mg day 1, 4 h): 1.5 µg/mL and 1.3 µg/mL
Plasma concentration, individual patients ([1]; 40 mg day 1, 8 h): 1.19 µg/mL and 0.822 µg/mL
Plasma concentration, individual patients ([1]; 40 mg day 1, 24 h): 1.22 µg/mL and 0.677 µg/mL
Plasma concentration, individual patients ([1]; 80 mg day 0, 0 h, in ng/mL): 0
Plasma concentration, individual patients ([1]; 80 mg day 0, 0.5 h): 0 µg/mL
Plasma concentration, individual patients ([1]; 80 mg day 0, 2 h): 2.9 µg/mL and 1.13 µg/mL and 2 µg/mL and 4.13 µg/mL and 1.95 µg/mL and 3.23 µg/mL
Plasma concentration, individual patients ([1]; 80 mg day 0, 4 h): 2.01 µg/mL and 3.03 µg/mL and 1.52 µg/mL
Plasma concentration, individual patients ([1]; 80 mg day 0, […], in ng/mL): 0
Plasma concentration, individual patients ([1]; 80 mg day 1, 0.5 h): 2.36 µg/mL and 0.757 µg/mL and 0.378 µg/mL and 2.95 µg/mL and 1.02 µg/mL and 1.25 µg/mL
Plasma concentration, individual patients ([1]; 80 mg day 1, 1 h): 4.42 µg/mL and 1.34 µg/mL and 0.816 µg/mL and 2.96 µg/mL and 0.939 µg/mL and 2.25 µg/mL
Plasma concentration, individual patients ([1]; 80 mg day 1, 2 h): 3.65 µg/mL and 1.7 µg/mL and 1.5 µg/mL and 2.46 µg/mL and 1.31 µg/mL and 2.04 µg/mL
Plasma concentration, individual patients ([1]; 80 mg day 1, 4 h): 3.23 µg/mL and 1.16 µg/mL and 3.2 µg/mL
Oral absorption ([1]; all doses, single and multiple dose): rapidly orally absorbed
concentration at 0 h ([1]; human, plasma, oral, 20 mg, 20 mg day 0, 0 h, read-out: Plasma concentration, individual patients): 0 µg/mL
concentration at 4 h ([1]; human, plasma, oral, 20 mg, 20 mg day 0, 4 h, read-out: Plasma concentration, individual patients): 0.885 µg/mL
concentration at 8 h ([1]; human, plasma, oral, 20 mg, 20 mg day 0, 8 h, read-out: Plasma concentration, individual patients): 0.562 µg/mL
concentration at 2 h ([1]; human, plasma, oral, 20 mg, 20 mg day 1, 2 h, read-out: Plasma concentration, individual patients): 0.757 µg/mL
concentration at 4 h ([1]; human, plasma, oral, 20 mg, 20 mg day 1, 4 h, read-out: Plasma concentration, individual patients): 1.02 µg/mL
concentration at 8 h ([1]; human, plasma, oral, 20 mg, 20 mg day 1, 8 h, read-out: Plasma concentration, individual patients): 0.618 µg/mL
concentration at 2 h ([1]; human, plasma, oral, 40 mg, 40 mg day 0, 2 h, read-out: Plasma concentration, individual patients): 2.22 µg/mL
concentration at 4 h ([1]; human, plasma, oral, 40 mg, 40 mg day 0, 4 h, read-out: Plasma concentration, individual patients): 1.45 µg/mL
concentration at 8 h ([1]; human, plasma, oral, 40 mg, 40 mg day 0, 8 h, read-out: Plasma concentration, individual patients): 1.01 µg/mL
concentration at 24 h ([1]; human, plasma, oral, 40 mg, 40 mg day 0, 24 h, read-out: Plasma concentration, individual patients): 0.203 µg/mL
concentration at 1 h ([1]; human, plasma, oral, 40 mg, 40 mg day 1, 1 h, read-out: Plasma concentration, individual patients): 2.49 µg/mL
concentration at 2 h ([1]; human, plasma, oral, 40 mg, 40 mg day 1, 2 h, read-out: Plasma concentration, individual patients): 2.29 µg/mL
concentration at 4 h ([1]; human, plasma, oral, 40 mg, 40 mg day 1, 4 h, read-out: Plasma concentration, individual patients): 1.64 µg/mL
concentration at 8 h ([1]; human, plasma, oral, 40 mg, 40 mg day 1, 8 h, read-out: Plasma concentration, individual patients): 0.996 µg/mL
concentration at 24 h ([1]; human, plasma, oral, 40 mg, 40 mg day 1, 24 h, read-out: Plasma concentration, individual patients): 1.15 µg/mL
concentration at 0 h ([1]; human, plasma, oral, 80 mg, 80 mg day 0, 0 h, read-out: Plasma concentration, individual patients): 0 µg/mL
concentration at […] ([1]; human, plasma, oral, 80 mg, 80 mg day 0, […], read-out: Plasma concentration, individual patients): 0 µg/mL
concentration at 0 h ([1]; human, plasma, oral, 160 mg, 160 mg day 0, 0 h, read-out: Plasma concentration, individual patients): 0 µg/mL
concentration at 0 h ([1]; human, plasma, oral, 240 mg, 240 mg day 0, 0 h, read-out: Plasma concentration, individual patients): 0 µg/mL
concentration at 8 h ([1]; human, plasma, oral, 240 mg, 240 mg day 0, 8 h, read-out: Plasma concentration, individual patients): 4.64 µg/mL
concentration at 12 h ([1]; human, plasma, oral, 240 mg, 240 mg day 0, read-out: Plasma concentration, individual patients): 4.2 µg/mL
concentration at 0 h ([1]; human, plasma, oral, 240 mg, 240 mg day 15, 0 h, read-out: Plasma concentration, individual patients): 8.53 µg/mL
concentration at 0.5 h ([1]; human, plasma, oral, 240 mg, 240 mg day 15, 0.5 h, read-out: Plasma concentration, individual patients): 13.5 µg/mL
concentration at 1 h ([1]; human, plasma, oral, 240 mg, 240 mg day 15, 1 h, read-out: Plasma concentration, individual patients): 17 µg/mL
concentration at 4 h ([1]; human, plasma, oral, 240 mg, 240 mg day 15, 4 h, read-out: Plasma concentration, individual patients): 13.5 µg/mL
concentration at 8 h ([1]; human, plasma, oral, 240 mg, 240 mg day 15, 8 h, read-out: Plasma concentration, individual patients): 10.2 µg/mL
concentration at 12 h ([1]; human, plasma, oral, 240 mg, 240 mg day 15, read-out: Plasma concentration, individual patients): 9.08 µg/mL
concentration at […] ([1]; human, plasma, oral, 240 mg, 240 mg day 15, […], read-out: Plasma concentration, individual patients): 11.2 µg/mL
half-life ([1]; human, plasma, oral, 40 and 80 mg dose levels): 5.3 to 7.7 h
half-life ([1]; human, plasma, oral, 160 and 240 mg dose levels): 11.2 to 12.8 h
Tmax ([1]; human, plasma, oral, all doses, single and multiple dose, read-out: Median time to peak drug concentration (tmax)): 0.5 to 4 h
Exposure versus dose ([1]; single dosing, 80 to 240 mg): increased approximately proportionally
p-Chk1 levels in PBMCs with treatment (phospho-(S345)Chk1): not consistent
